Measured values: patent US20020094524A1, “Compositions and methods for inhibiting HIV infection” (priority 2000, published 2002)

Key:
[1] = system: HIV Bal strain; assay: HIV RT activity in HIV Bal strain-infected MDM; format: cell-based, HIV-1; conditions: for RT activity during HIV Bal infection of MDM: 10^−7−10^−6M (FIG. 18)
Procedure: (§1) The cells were also incubated with SP and/or anti-SP antibody. In this case, SP was incubated with (1:1000 dilution in 10% FCS DMEM) or without anti-SP antibody at room temperature for 10 min and then the mixture was added to the cell cultures for 2 h. When the cells were treated with the combination of CP-96,345 and SP, or CP-96,345, SP and anti-SP antibody, CP-96,345 was incubated with the cell culture for 10 min and then SP was added to the MDM or CP-96,345, SP and anti-SP (1:1000 in 10% FCS DMEM) were incubated for 10 min at room temperature and the mixture was incubated with the MDM for 2 h before infection with HIV. Untreated MDM served as controls. The cells were treated prior to, during, and throughout the infection.
HIV Infection: After 2 h incubation with or without the reagents described above, the cells were infected with equal amounts of cell-free HIV based on p24 antigen content (20 ng/10^6 cells) overnight, and then washed to remove unbound virus. Fresh media containing SP and/or CP-96,345 or anti-SP antibody were added to the MDM as described above. The culture media and the reagents were replaced twice weekly. The culture supernatants were harvested for HIV reverse transcriptase (RT) activity determinations. After HIV infection, the MDM were incubated for 8 to 12 days. At the termination of the experiments, cellular RNA was extracted for assessment of HIV gag gene expression using RT-PCR or real time RT-PCR assays.
The HIV RT activity assay was carried out based on the technique of Willey et al. (30) with modification (22).

[2] = system: R5 strains (Bal, ADA, CSF-6 and BL-6); assay: HIV RT activity in MDM infected with R5 strains; format: cell-based
Procedure: Based upon their differential use of the major HIV co-receptors, HIV isolates have been referred to as R5, X4 or R5X4 strains, respectively (29). The M-tropic (macrophage-tropic) R5 prototype strains (Bal and ADA), dual tropic strain (89.6) and X4 primary isolate (UG024), were obtained from the NIH AIDS Reagent Program. Primary M-tropic isolates (BL-6 and CSF-6) were isolated from the blood and cerebrospinal fluid cells, respectively, of a subject with AIDS.
as §1, with “infection. […]” for “infection.”

[3] = system: HIV LTR promoter; assay: HIV LTR-driven CAT activity assay in U38 cells; format: cell-based
From the text: ACH-2 and U38 cell lines (25, 26) were obtained from the NIH AIDS Reagent Program. DNA extracted from ACH-2 cells was used as a positive standard for HIV DNA PCR as previously reported (27). The U38 cell line contains stably integrated, silent copies of the HIV LTR (long terminal repeat) promoter linked to a CAT (chloramphenicol acetyltransferase) gene and was used to study the effect of SP and/or CP-96,345 and R-113281 on the activation of HIV LTR promoter.
Chloramphenicol acetyltransferase (CAT) activity assay:U38 cells (2×10^6 cells) were incubated with different concentrations of SP and/or CP-96,345 or R-113281 for 48 h. Untreated U38 cells were used as a background control. Cellular proteins were extracted using 1× Reporter Lysis Bufffer (Promega Corp., Madison, Wis.). The lysates were incubated with a mixture containing 0.15 μCi of ^14C-labeled chloramphenicol (DuPont Inc., Boston, Mass.) and 200 μg/ml of n-Butyryl CoA (Promega Corp., Madison, Wis.) in a total volume of 125 μl at 37° C. for 3 h. The acetylated forms of chloramphenicol were extracted with xylene (Aldrich Chemical Company, Milwaukee, Wis.). CAT activity of each sample was quantified using a liquid-scintillation counter (Packard Instrument Company, Downers Grove, Ill.). The results were expressed as the ratio of CAT activity (CPM) of the SP and/or CP-96,345-treated or R-113281-treated U38 to that of the background control.

[4] = system: ADA Env-pseudotyped HIV; assay: Pseudotype reporter virus entry assay, ADA Env; format: cell-based
Procedure: Pseudotype reporter virus entry assay: Recombinant luciferase-encoding HIV virions pseudotyped with Env from the M-tropic ADA (CCR5-dependent) and amphitropic murine leukemia virus (MLV) (CCR5-independent) were used to study HIV infection of MDM incubated with or without CP-96,345 or R-113281. The Env-deleted luciferase reporter plasmid PNL-Luc-E-R+ (kindly provided by N. Landau) was cotransfected into 293T cells along with plasmids encoding the ADA or MLV Env genes as previously described (31). Supernatants were collected 48 h later, assayed for p24^Gag antigen content, and frozen at −80° C. MDM (2.5×10^5 cells/well, in 48-well plates) were incubated overnight with or without CP-96,345 or R-113281 and then infected using 20 ng of p24^Gag antigen equivalent of each pseudotype HIV per well, in the presence of polybrene (7.5 μg/ml). At 72 h postinfection, the cells were lysed in 150 μl of 0.5% Triton-X-100 in PBS. Lysate (50 μl) was mixed with an equal volume of luciferase substrate (Promega, […].) and luciferase activity was determined in a microtiter plate luminometer (Dynex Technologies, Chantilly, Va.). The results were expressed as relative light units (RLU) in CP-96,345-treated or R-113281-treated and infected MDM as a percentage of that in untreated and infected MDM.

[5] = system: IL-6; assay: IL-6 production in LPS-treated MDM (ELISA); format: cell-based, human; conditions: 10^−9 to 10^−7M; LPS 1 ng/ml; 24 h (FIG. 11)
Procedure: In order to determine the role of CP-96,345 in the regulation of cytokine secretion, 7-day-cultured MDM were incubated with or without CP-96,345 (10^−9 to 10^−7M) and/or LPS (1 ng/ml) for 24 h. The culture supernatants were collected to determine TNF-α and IL-6 levels by ELISA. The ELISA kits were purchased from Endogen, Inc. (Woburn, Mass.).

Structure (SMILES) | RT activity during HIV Bal infection of MDM [1] | HIV RT activity in Bal-infected MDM ([1]; day 8 post-infection, indicated concentrations (FIG. 12)) | replication of R5 strains (RT activity) ([2]; R-113281 10^−6 M, 8 days after infection (FIG. 14)) | effect on SP activation of HIV LTR-driven CAT activity ([3]; SP (10^−8M), R-113281 10^−6M, 48 hours (FIG. 16)) | M-tropic ADA Env-pseudotyped HIV infection of MDM (luciferase activity) ([4]; R-113281 10^−7 and 10^−6 overnight (FIG. 13)) | viral replication by HIV RT activity vs HIV infection control ([1]; 10^−7M, 8 days after infection (FIG. 4)) | HIV replication relative to HIV infection control ([1]; CP-96,345 10^−6M and/or anti-SP antibody 1:1000, 12 days (FIG. 5)) | inhibition at 1 µM ([1]; Human immunodeficiency virus 1, BAL, 192 h, 10^−6M, day 8 after HIV infection (FIG. 1B)) [%] | inhibition at 0.1 µM ([1]; Human immunodeficiency virus 1, BAL, 192 h, 10^−7M, day 8 after HIV infection (FIG. 1B)) [%] | inhibition at 0.01 µM ([1]; Human immunodeficiency virus 1, BAL, 192 h, 10^−8M, day 8 after HIV infection (FIG. 1B)) [%] | effect on SP-enhanced HIV replication in MDM (RT activity and gag mRNA) ([1]; SP 10^−6M, CP-96,345 10^−6M, anti-SP antibody 1:1000, 12 days (FIG. 5)) | replication of R5 strains (RT activity) ([2]; CP-96,345 10^−7M, 8 days after infection (FIG. 6)) | effect on SP activation of HIV LTR-driven CAT activity ([3]; SP 10^−8M, CP-96,345 10^−6M, 48 h (FIG. 7)) | M-tropic ADA Env-pseudotyped HIV infection of MDM (luciferase activity) ([4]; CP-96,345 10^−8 and 10^−7M overnight (FIG. 10)) | IL-6 production in MDM [5]
COc1cc(C(=O)N2CCO[C@](CCN3CCC4(CC3)c3ccccc3C[S@+]4[O-])(c3ccc(Cl)c(Cl)c3)C2)cc(OC)c1OC.Cl [R-113281] | inhibitory effects | significantly reduced | inhibited | abrogated | inhibited | – | – | – | – | – | – | – | – | – | –
COc1ccccc1CN[C@H]1C2CCN(CC2)[C@H]1C(c1ccccc1)c1ccccc1 [CP-96,345, 2S, 3S)-cis-2-(diphenylmethyl)-N-[(2-methoxyphenyl)-methyl]-1-azabicyclo[[2.2.2]octan-3-amine] | inhibitory effects | – | – | – | – | inhibited | down-regulated HIV replication to a level that was even lower than that of the HIV infection control | 54 | 43 | 1 | abrogated | inhibited | abrogated | inhibited | not affected
